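Following 48 hours of exposure in 96-well plates, responses at five concentrations were used to interpolate endpoints linearly. Abbreviation: GI50, concentration required for 50% inhibition of growth. Definition used: TGI = concentration required for complete inhibition of growth.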
Key:
Assay in all cases: NCI tumour cell line growth inhibition, 48 h
A498 renal = tested on: A498 renal
A549 NSCLC = tested on: A549 NSCLC
CAKI-1 renal = tested on: CAKI-1 renal
M19-MEL melanoma = tested on: M19-MEL melanoma
OVCAR-3 ovarian = tested on: OVCAR-3 ovarian
RPMI-8226 leukemia = tested on: RPMI-8226 leukemia
SF-295 CNS = tested on: SF-295 CNS
SK-MEL-2 melanoma = tested on: SK-MEL-2 melanoma
U251 CNS = tested on: U251 CNS
UO-31 renal = tested on: UO-31 renal

Structure (SMILES)	TGI (A498 renal)	TGI (A549 NSCLC)	TGI (CAKI-1 renal)	TGI (M19-MEL melanoma)	TGI (OVCAR-3 ovarian)	TGI (RPMI-8226 leukemia)	TGI (SF-295 CNS)	TGI (SK-MEL-2 melanoma)	TGI (U251 CNS)	TGI (UO-31 renal)	GI50 (A498 renal)	GI50 (A549 NSCLC)	GI50 (CAKI-1 renal)	GI50 (OVCAR-3 ovarian)	GI50 (RPMI-8226 leukemia)	GI50 (SF-295 CNS)	GI50 (SK-MEL-2 melanoma)	GI50 (U251 CNS)	GI50 (UO-31 renal)
CCc1cccc(C)c1NC(=O)CC1Sc2ccccc2NC1=O (stereo not given)	72.8 µM	> 100 µM	> 100 µM	> 100 µM	> 100 µM	> 100 µM	> 100 µM	> 100 µM	> 100 µM	> 100 µM	–	–	–	–	–	–	–	–	–
OCC1OC(N2C=C(c3nc4ccccc4s3)C3C=CC=CC32)C(O)C1O (stereo not given)	17.7 µM	41.2 µM	22 µM	–	36.6 µM	21.8 µM	43.6 µM	> 50 µM	14.8 µM	> 50 µM	7.91 µM	12.7 µM	9.32 µM	13.4 µM	7.57 µM	13.1 µM	29.7 µM	6 µM	17.7 µM
c1cc(-c2sc(-c3ccncc3)c(-c3ccncc3)c2-c2ccncc2)ccn1	26.7 µM	45.8 µM	> 100 µM	–	44.4 µM	> 100 µM	41.6 µM	48.1 µM	27.8 µM	30 µM	–	–	–	–	–	–	–	–	–
CCCCCCCCCCCC(=O)C1=C(O)C(O)CCC1=O (stereo not given)	43.2 µM	> 100 µM	70.6 µM	44.6 µM	38.3 µM	–	30.5 µM	25 µM	55.5 µM	64.9 µM	–	–	–	–	–	–	–	–	–
O=S(=O)(O)c1ccc2cc(N=Nc3cc(S(=O)(=O)O)c4cccnc4c3O)ccc2c1	> 100 µM	> 100 µM	> 100 µM	–	> 100 µM	> 100 µM	> 100 µM	> 100 µM	> 100 µM	> 100 µM	–	–	–	–	–	–	–	–	–
CC/C=C\C[C@H](O)C/C=C1/C(=O)C=C[C@@H]1C/C=C\CCCC(N)=O	7.07 µM	6.01 µM	3.92 µM	–	4.22 µM	5.24 µM	6.23 µM	5.69 µM	4.12 µM	3.42 µM	2.9 µM	2.49 µM	1.62 µM	1.26 µM	1.14 µM	2.52 µM	2.31 µM	1.5 µM	1.63 µM
Cc1c2ncccc2c(C)c2c1[nH]c1ccccc12	25.2 µM	21.1 µM	22 µM	26.1 µM	28.3 µM	26.2 µM	21.9 µM	41.4 µM	24.7 µM	–	–	–	–	–	–	–	–	–	–
Nc1ncnc2c1ncn2C1OC(C(=O)O)C(O)C1O (stereo not given)	> 100 µM	> 100 µM	> 100 µM	–	> 100 µM	> 100 µM	> 100 µM	> 100 µM	> 100 µM	> 100 µM	–	–	–	–	–	–	–	–	–
O=C(O)C(Cc1ccc(O)c([N+](=O)[O-])c1)N1C(=O)c2ccccc2C1=O (stereo not given)	> 100 µM	> 100 µM	> 100 µM	–	> 100 µM	> 100 µM	> 100 µM	> 100 µM	> 100 µM	> 100 µM	–	–	–	–	–	–	–	–	–
O=C(N/N=C/c1ccc(F)cc1)c1[nH]c2ccc(I)cc2c1-c1ccccc1	–	> 54.5 µM	56.1 µM	–	0.531 µM	0.639 µM	1.5 µM	> 100 µM	> 37.9 µM	52.6 µM	0.409 µM	0.76 µM	0.399 µM	0.229 µM	0.191 µM	0.27 µM	10.9 µM	0.484 µM	1.98 µM
O=C1c2cccc3cc([N+](=O)[O-])cc(c23)C(=O)N1CCCN1CCN(CCCN2C(=O)c3cccc4cc([N+](=O)[O-])cc(c34)C2=O)CC1	3.87 µM	> 100 µM	–	2.56 µM	4.81 µM	> 100 µM	12.4 µM	5.34 µM	19.3 µM	1.01 µM	–	–	–	–	–	–	–	–	–
CC1(C)C(=O)/C(=C\c2ccco2)C[C@]2(C)[C@H]3CC=C4[C@@H]5C[C@](C)(C(=O)O)CC[C@]5(C)CC[C@@]4(C)[C@]3(C)CC[C@@H]12	22.4 µM	21.7 µM	28.2 µM	–	26.1 µM	47.9 µM	24.6 µM	36.8 µM	24.8 µM	19.9 µM	10.3 µM	4.21 µM	10.6 µM	10.9 µM	4.2 µM	7.06 µM	15.1 µM	7.92 µM	5.01 µM
CCCCc1cc(O)ccc1O	> 100 µM	> 100 µM	> 100 µM	–	21.8 µM	26.6 µM	> 100 µM	> 100 µM	> 100 µM	28.1 µM	> 100 µM	89.2 µM	33 µM	7.84 µM	3.13 µM	42.7 µM	35.8 µM	37.4 µM	10.8 µM
Cn1cc(NC(=O)c2cc(NC(=O)CCCCCC(=O)Nc3cc(C(=O)Nc4cc(C(=O)NCCC(=N)N)n(C)c4)n(C)c3)cn2C)cc1C(=O)NCCC(=N)N	> 100 µM	> 100 µM	> 100 µM	92.8 µM	> 100 µM	–	> 100 µM	–	> 100 µM	> 100 µM	–	–	–	–	–	–	–	–	–
NC(=O)c1ccccc1NC(=O)C(=O)C(c1cnc2ccc([N+](=O)[O-])cc2n1)[N+](=O)[O-] (stereo not given)	> 100 µM	> 100 µM	> 100 µM	–	> 100 µM	> 100 µM	> 100 µM	> 100 µM	> 100 µM	> 100 µM	–	–	–	–	–	–	–	–	–
CCc1ccc(C2=C(O)C(=O)C(c3ccc(CC)cc3)=C(O)C2=O)cc1	5.36 µM	10.4 µM	5.27 µM	–	3.13 µM	6.43 µM	6.7 µM	3.35 µM	10.1 µM	4.91 µM	1.74 µM	2.74 µM	1.92 µM	1.57 µM	1.81 µM	1.93 µM	1.18 µM	2.26 µM	1.73 µM
CCOC(=O)C(=O)Nc1c(C)cccc1CC	–	> 100 µM	> 100 µM	> 100 µM	> 100 µM	> 100 µM	> 100 µM	> 100 µM	> 100 µM	> 100 µM	–	–	–	–	–	–	–	–	–
COc1cc(C(C#N)NNC(=O)c2ccccc2O)ccc1O (stereo not given)	–	> 100 µM	> 100 µM	> 100 µM	48.5 µM	> 100 µM	> 100 µM	> 100 µM	> 100 µM	3.28 µM	–	–	–	–	–	–	–	–	–

Source: PubChem BioAssay (NCI)
